Laboratory results as given in publication PMC11938014, “Development and Application of Small Molecule–Peptide Conjugates as Cathepsin K-Specific Covalent Irreversible Inhibitors in Human Osteoclast and Lung Cancer” (JACS Au, 2025).

How the values were obtained:
[1] = test system: human osteoclasts; experiment: TRAP staining, osteoclast number on bone slices; type: cell-based; conditions: inhibitor 1 or 5 μM
Experimental: Figure 6 CTSK inhibition in human osteoclasts. (a) Scheme of the process of maturation of osteoclasts (OCs) derived from human monocytes in the presence of RANKL and M-CSF. (b) Representative pictures of bone resorption after incubation with human OCs treated with vehicle or inhibitors for 10–14 days. Bone resorption was observed by a toluidine blue stain. Increased staining indicates a higher number of resorption pits and greater bone resorption. (c) Quantitative analysis of pit formation in bone slices after incubation with OC treated with GD20 or ODN (1, 5 μM) relative to vehicle treated slices. […] (e) Quantification of osteoclasts number on bone slices after inhibitor treatment, detected by TRAP staining. […] The activity of CTSK in the cells was detected by 2 h labeling with a pan-cathepsin activity-based probe, GB123, followed by a fluorescence scan of the SDS-PAGE detecting CTSK attached to the probe; the red arrow points to the bands of CTSK (above 25 kDa). […]
Blood was taken in an aseptic nontouch technique from consented human volunteers that were bled from the median cubital vein using a 21G needle, by the Declaration of Helsinki. […] The whole bone slice was analyzed by generating a panoramic view of the slice using stitching of images taken with an 20× magnification. […] And again, bone slice slices were imaged as was described before and counted using ImageJ software. […]

[2] = biological target: T1, CTSK in human OCs (Homo sapiens, UniProt P43235); experiment: Gel-based residual cathepsin activity in human osteoclasts (GB123) and immunoblot; type: cell-based
T1 construct: endogenous in cells; host or cells: primary human osteoclasts differentiated from blood monocytes with M-CSF and RANKL
T1 sequence (P43235 115-329): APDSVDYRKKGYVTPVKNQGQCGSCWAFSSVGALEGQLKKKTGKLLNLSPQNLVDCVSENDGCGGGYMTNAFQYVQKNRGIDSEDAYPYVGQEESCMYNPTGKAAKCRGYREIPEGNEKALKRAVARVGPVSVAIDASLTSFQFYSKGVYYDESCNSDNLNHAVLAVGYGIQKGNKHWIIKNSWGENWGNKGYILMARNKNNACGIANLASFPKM
Experimental: Figure 6 CTSK inhibition in human osteoclasts. (a) Scheme of the process of maturation of osteoclasts (OCs) derived from human monocytes in the presence of RANKL and M-CSF. (b) Representative pictures of bone resorption after incubation with human OCs treated with vehicle or inhibitors for 10–14 days. Bone resorption was observed by a toluidine blue stain. Increased staining indicates a higher number of resorption pits and greater bone resorption. (c) Quantitative analysis of pit formation in bone slices after incubation with OC treated with GD20 or ODN (1, 5 μM) relative to vehicle treated slices. Data represent mean ± standard errors, and asterisks represent p values relative to control, *p < 0.05, **p < 0.01, ***p < 0.001, n = 3 bone slices. (d) Representative images of tartrate-resistant acid phosphatase (TRAP) staining of the human osteoclasts on bone slices in the presence of vehicle or inhibitors, as indicated. […] (e) Quantification of osteoclasts number on bone slices after inhibitor treatment, detected by TRAP staining. (f) Human OCs were treated with vehicle or increasing concentrations of GD20 for 11 days (changing the medium every 2–3 days). The activity of CTSK in the cells was detected by 2 h labeling with a pan-cathepsin activity-based probe, GB123, followed by a fluorescence scan of the SDS-PAGE detecting CTSK attached to the probe; the red arrow points to the bands of CTSK (above 25 kDa). CTSK immunoblot of the same OCs is presented aside.
Cells were seeded 3 × 10^6 per 24-well plate (Primaria, Corning) in 1 mL of RPMI 1640 medium supplemented with 10% FBS and 50 μg/mL gentamicin. The next day, the medium was removed, and the adherent cells were washed with α-MEM and cultured for 14 consecutive days in α-MEM supplemented with 10% FBS, 1% penicillin, 1% streptomycin (Biological Industries), 100 ng/mL RANKL (R&D Systems), and 25 ng/mL M-CSF (R&D Systems) (for osteoclast) or with 25 ng/mL M-CSF and IL-4 (macrophage). Every 3 days, the media was changed with the required amount of M-CSF and RANKL until the giant osteoclasts appeared or with M-CSF and IL-4. […]

Row | CTSK activity in human OC ([2]; 1 μM, 11 days, GB123 labeling) | CTSB activity in human OC ([2]; accompanying CTSK inhibition, GB123 labeling) | CTSK protein levels by immunoblot ([2]; all inhibitor concentrations) | Compound | osteoclast numbers on bone slices (TRAP) [1]
1 | blocked most of the CTSK activity | increase in CTSB activity | elevated CTSK protein levels | CC(C)C[C@H](N[C@@H](c1ccc(-c2ccc(S(C)(=O)=O)cc2)cc1)C(F)(F)F)C(=O)NCC(=O)COC(=O)[C@@H]1CCCN1C(=O)[C@H](CC(C)C)NC(=O)OCC1c2ccccc2-c2ccccc21 [GD20] | no significant alterations
2 |  |  |  | CC(C)(F)C[C@H](N[C@@H](c1ccc(-c2ccc(S(C)(=O)=O)cc2)cc1)C(F)(F)F)C(=O)NC1(C#N)CC1 [ODN, odanacatib, reference compound] | increase
